Assay results reported in ChEMBL document CHEMBL1949559, “Discovery of a new class of potent prolylcarboxypeptidase inhibitors derived from alanine” (Bioorg Med Chem Lett, 2012).
Each block holds one compound with its values, some of them ahead of it.

Key:
[1] = Volume of distribution at steady state in mouse at 1 mg/kg, iv and 2 mg/kg, po; type: ADME, organism-based; settings: in vivo, read-out: Vdss
[2] = Clearance in mouse at 1 mg/kg, iv and 2 mg/kg, po; type: ADME, organism-based; settings: in vivo
[3] = target: T1, Lysosomal Pro-X carboxypeptidase (Mus musculus, UniProt Q7TMR0); experiment: Inhibition of mouse recombinant PrCP using Mca-Ala-Pro-Lys(Dnp)-OH as substrate for 30 mins by continuous fluorimetric assay
T1 sequence (Q7TMR0 whole entry): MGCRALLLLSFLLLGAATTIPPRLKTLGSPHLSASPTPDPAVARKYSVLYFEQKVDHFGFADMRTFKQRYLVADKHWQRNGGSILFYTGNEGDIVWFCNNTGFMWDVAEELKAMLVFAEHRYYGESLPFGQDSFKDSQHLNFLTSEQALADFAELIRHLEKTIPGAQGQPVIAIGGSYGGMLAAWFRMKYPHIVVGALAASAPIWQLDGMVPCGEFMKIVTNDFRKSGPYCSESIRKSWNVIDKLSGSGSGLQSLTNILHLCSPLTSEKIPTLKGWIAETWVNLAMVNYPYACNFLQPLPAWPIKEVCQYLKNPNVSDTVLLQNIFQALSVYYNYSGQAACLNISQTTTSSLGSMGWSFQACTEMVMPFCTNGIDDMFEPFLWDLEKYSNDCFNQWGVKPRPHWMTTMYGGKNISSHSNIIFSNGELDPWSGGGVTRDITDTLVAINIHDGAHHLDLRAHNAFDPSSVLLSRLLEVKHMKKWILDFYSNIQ

Mus musculus = experiment: Dose normalized AUC in mouse at 2 mg/kg, po; type: ADME, organism-based; design: dose 2 mg/kg, route oral; settings: in vivo
[4] = target: T1, Lysosomal Pro-X carboxypeptidase; experiment: Inhibition of PrCP-mediated angiotensin3 cleavage in mouse plasma using exogenous angiotensin III as substrate for 8 mins by LC/MS analysis
[5] = Oral bioavailability in mouse at 2 mg/kg; type: ADME, organism-based; settings: in vivo
[6] = Half life in mouse at 1 mg/kg, iv and 2 mg/kg, po; type: ADME, organism-based; settings: in vivo
[7] = target: T2, Lysosomal Pro-X carboxypeptidase (Homo sapiens) (UniProt P42785); experiment: Inhibition of human recombinant PrCP using Mca-Ala-Pro-Lys(Dnp)-OH as substrate at 5 uM for 30 mins by continuous fluorimetric assay
T2 sequence (whole entry): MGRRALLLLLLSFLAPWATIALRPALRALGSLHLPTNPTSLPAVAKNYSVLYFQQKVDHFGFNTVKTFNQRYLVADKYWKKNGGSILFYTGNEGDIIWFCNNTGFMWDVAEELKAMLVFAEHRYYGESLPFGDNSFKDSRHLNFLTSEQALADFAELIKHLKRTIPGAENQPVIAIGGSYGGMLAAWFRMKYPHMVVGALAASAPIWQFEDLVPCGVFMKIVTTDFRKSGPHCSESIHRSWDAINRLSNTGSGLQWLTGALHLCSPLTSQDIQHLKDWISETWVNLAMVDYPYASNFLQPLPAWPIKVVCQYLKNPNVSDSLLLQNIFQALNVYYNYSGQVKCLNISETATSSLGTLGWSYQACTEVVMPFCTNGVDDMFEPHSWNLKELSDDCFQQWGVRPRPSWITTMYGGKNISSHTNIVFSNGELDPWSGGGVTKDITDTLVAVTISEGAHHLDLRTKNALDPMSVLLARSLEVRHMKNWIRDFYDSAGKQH

[8] = target: T2, Lysosomal Pro-X carboxypeptidase (Homo sapiens); experiment: Inhibition of human recombinant PrCP using Mca-Ala-Pro-Lys(Dnp)-OH as substrate at 0.5 uM for 30 mins by continuous fluorimetric assay
[9] = target: T3, Lysosomal Pro-X carboxypeptidase (Homo sapiens, UniProt P42785); experiment: Inhibition of human recombinant PrCP using Mca-Ala-Pro-Lys(Dnp)-OH as substrate for 30 mins by continuous fluorimetric assay
T3 sequence (P42785 whole entry): T2 sequence (whole entry)

SMILES: COc1cccc(-c2cnc([C@H](C)NC(=O)CCCOc3ccccc3)[nH]2)c1
inhibition [7]: 90% | inhibition [8]: 65%

SMILES: C[C@H](NC(=O)[C@@H](N)Cc1cccc(C#N)c1)c1nc2cc(Cl)c(Cl)cc2[nH]1
IC50 [4]: 5000 nM

SMILES: CC(C)(NC(=O)CCN1CCC(c2ccccc2)CC1)c1nc2cc(Cl)c(Cl)cc2[nH]1
IC50 [9]: 181 nM

SMILES: C[C@H](NC(=O)CCN1CCN(c2cccc(F)c2)CC1)c1nc2cc(Cl)c(Cl)cc2[nH]1
IC50 [4]: 5000 nM

SMILES: C[C@H](NC(=O)CCN1CCN(c2ccc(F)cc2)CC1)c1nc2cc(Cl)c(Cl)cc2[nH]1
IC50 [4]: 20000 nM

SMILES: C[C@H](NC(=O)[C@H](Cc1ccc(-c2ccccc2)cc1)NCC(C)(C)N)c1nc2cc(Cl)c(Cl)cc2[nH]1
IC50 [4]: 585 nM

SMILES: O=C(CCc1ccc(-c2ccccc2)cc1)NCc1nc2cc(Cl)c(Cl)cc2[nH]1
IC50 [9]: > 10000 nM

SMILES: C[C@H](NC(=O)[C@@H](NC(=O)C(C)(C)N)[C@@H](C)c1ccc(OCC(F)(F)F)cc1)c1nc2cc(Cl)c(Cl)cc2[nH]1
IC50 [4]: 92 nM

SMILES: COc1cccc(-c2cnc(C(NC(=O)CCCOc3ccccc3)C3CCCCC3)[nH]2)c1 (configuration not stated)
inhibition [7]: 31% | inhibition [8]: 7%

SMILES: Clc1cc2nc(-c3cccnc3NCCc3ccc(-c4ccccc4)cc3)[nH]c2cc1Cl
IC50 [9]: > 10000 nM

SMILES: CC(C)(C)OC(=O)N[C@@H](Cc1ccc(-c2ccccc2)cc1)C(=O)N1CCCC[C@H]1c1nc2cc(Cl)c(Cl)cc2[nH]1
IC50 [9]: > 10000 nM

Now from value to compound:

Vd [1]: 14 L/kg | clearance [2]: 58 mL/min/kg | IC50 [3]: 0.039 nM | AUC/dose (Mus musculus): 0.52 µM·kg·h/mg | IC50 [4]: 22 nM | bioavailability [5]: 17% | half-life [6]: 4 h
SMILES: C[C@H](NC(=O)[C@@H](NC(=O)C(C)(C)N)[C@@H](C)c1ccc(-c2ccccc2)cc1)c1nc2cc(Cl)c(Cl)cc2[nH]1

IC50 [4]: 78 nM
SMILES: C[C@H](NC(=O)[C@@H](NC(=O)C(C)(C)O)[C@@H](C)c1ccc(-c2cn[nH]c2)cc1)c1nc2cc(Cl)c(Cl)cc2[nH]1

inhibition [7]: 13% | inhibition [8]: 3%
SMILES: O=C(CCCOc1ccccc1)N[C@@H](Cc1ccccc1)c1ncc(-c2ccc(F)cc2)[nH]1

IC50 [4]: 45 nM
SMILES: C[C@H](NC(=O)[C@@H](NC(=O)C(C)(C)O)[C@@H](C)c1ccc(OCC(F)(F)F)cc1)c1nc2cc(Cl)c(Cl)cc2[nH]1

IC50 [9]: > 10000 nM
SMILES: Clc1cc2nc(-c3cccnc3OCCc3ccc(-c4ccccc4)cc3)[nH]c2cc1Cl

IC50 [3]: 128 nM | IC50 [4]: 1600 nM
SMILES: C[C@H](NC(=O)[C@H](Cc1cccc(C#N)c1)NC(=O)C(C)(C)N)c1nc2cc(Cl)c(Cl)cc2[nH]1
